Entries after “also recorded” stand apart in the source; their conditions may differ. Where two headings read alike, the source gives them in different places. Blank lines part the entries; values can stand above or below the compound they belong to.
Assays:
Namalwa cells = assay: Sulphorhodamine B (SRB) assay, Namalwa; assay type: cell-based, human
Experimental: (§1) Cells of the types described above were seeded in wells of a 96-well plate at a number optimised for each cell line.
(§2) A fixed concentration of AS1411 (either 1 μM or 2.5 μM) was added with varying concentrations of doxorubicin (ranging between 0.12 nM and 30667.0 nM) and cells were incubated for 6 days. A control was run with varying amounts of AS1411 without Doxorubicin. A second control series was run with the varying amounts of Doxorubicin but with no AS1411 present.
(§3) Cells were then washed, fixed to the 96-well plate with 16% TCA and exposed to the dye Sulphorhodamine B (SRB; available from Sigma-Aldrich, Dorset, UK; catalogue number S-1402). The optical density of the remaining cell mass after exposure to AS1411 was measured in a microplate spectrophotometer and IC50 determined.
(§4) The experiments were run in duplicate and the mean optical density calculated.
(§5) Combination index (CI) is determined using Calcusyn software (Biosoft, Cambridge UK) which employs the method of Chou, T.-C. and Talalay, P (See, Chou et al, Adv. Enz. Regul. 22: 27-55, 1984; and Chou, T.-C., Pharmacological Reviews 58:621-681, 2006.).

MV411 cells = assay: Sulphorhodamine B (SRB) assay, MV411; assay type: cell-based; conditions: MV411, 6 days
Experimental: as §1, §2, §3, §4, §5

KG-1 cells = assay: Sulphorhodamine B (SRB) assay, KG-1; assay type: cell-based; conditions: KG-1, 6 days
Experimental: as §1, §2, §3, §4, §5

K562 cells = assay: Sulphorhodamine B (SRB) assay, K562; assay type: cell-based; conditions: K562, 6 days
Experimental: as §1, §2, §3, §4, §5

Daudi cells = assay: Sulphorhodamine B (SRB) assay, Daudi; assay type: cell-based, human
Experimental: as §1, §2, §3, §4, §5

Raji cells = assay: Sulphorhodamine B (SRB) assay, Raji; assay type: cell-based, human
Experimental: as §1, §2, §3, §4, §5

HL-60 cells = assay: Sulphorhodamine B (SRB) assay, HL-60; assay type: cell-based; conditions: HL-60, 6 days
Experimental: as §1, §2, §3, §4, §5

Jurkat cells = assay: Sulphorhodamine B (SRB) assay, Jurkat; assay type: cell-based; conditions: 6 days
Experimental: as §1, §2, §3, §4, §5

MV4-11 (AML) cells = assay: SRB assay, paediatric cancer cell line MV4-11; assay type: cell-based; conditions: MV4-11, acute myelogenous leukaemia (AML); 6-day SRB; average of at least two experiments
Experimental: (§6) Cells were typically seeded in wells of a 96-well plate as follows for each cell line:
(§7) AS1411 (G rich oligonucleotide of sequence ID No. 1) was added at a concentration selected from 0, 0.1, 1, 5 or 20 µM and cells were incubated for 6 days
(§8) Cells were then washed, fixed to the 96-well plate and exposed to the dye Sulphorhodamine B (SRB; available from Sigma-Aldrich, Dorset, UK; catalogue number S-1402. The optical density of the remaining cell mass after exposure to AS1411 was measured in a microplate spectrophotometer and IC50 determined. For the time course experiments, AS1411 was washed off cells at the stated time-point, and then fresh medium applied to the cells which were left to grow for the full 6 days of the assay.
as §4

SUP-B15 (ALL) cells = assay: SRB assay, paediatric cancer cell line SUP-B15; assay type: cell-based; conditions: SUP-B15, acute lymphoblastic leukaemia (ALL); 6-day SRB; average of at least two experiments
Experimental: as §6, §7, §8, §4

R-1059-D (osteosarcoma) = assay: SRB assay, paediatric cancer cell line R-1059-D; assay type: cell-based; conditions: 6-day SRB, average of at least two experiments
Experimental: as §6, §7, §8, §4

A204 (rhabdomyosarcoma) = assay: SRB assay, paediatric cancer cell line A204; assay type: cell-based; conditions: 6-day SRB, average of at least two experiments
Experimental: as §6, §7, §8, §4

SK-N-AS (neuroblastoma) = assay: SRB assay, paediatric cancer cell line SK-N-AS; assay type: cell-based; conditions: 6-day SRB, average of at least two experiments
Experimental: as §6, §7, §8, §4

Bax protein = assay: Western blot analysis, Bax; assay type: cell-based; conditions: cells incubated with AS1411 for 4 days; whole cell lysate; both cell lines; normalised to β-actin
Experimental: (§9) Cells were incubated with AS1411 for 4 days, after which cell lysates were analysed by non-reducing SDS-PAGE analysis using 4-12% NuPAGE Bis-Tris Gels (Invitrogen).
(§10) 10 μg of total protein (whole cell lysate) was loaded per well as assessed by the Lowry assay (Lowry reagent available from Sigma-Aldrich, catalogue number L3540) and detected using ECL Advance western blotting kit (GE Healthcare).
(§11) Anti-nucleolin and bax antibodies were obtained from Santa Cruz and the β-actin antibody from QED.

nucleolin = assay: Western blot analysis, nucleolin; assay type: cell-based; conditions: cells incubated with AS1411 for 4 days; whole cell lysate
Experimental: as §9, §10, §11

[1] = Homo sapiens, 144 h, IC50 as doxorubicin concentration, alone or with fixed AS1411
[2] = Homo sapiens, 144 h, 6 days, SRB, IC50 as doxorubicin concentration, alone or with fixed AS1411, read-out: Mean IC50
[3] = Homo sapiens, doxorubicin alone, read-out: Doxorubicin IC50, Alone
[4] = Homo sapiens, in combination with 2.5 μM AS1411, read-out: Doxorubicin IC50, In combination with 2.5 μM AS1411
[5] = doxorubicin IC50 alone vs in combination with 2.5 μM AS1411
[6] = 6 days, SRB, AS1411 without doxorubicin, read-out: Mean IC50

IC50 (MV411 cells; Homo sapiens, MV4-11, 144 h, IC50 as doxorubicin concentration, alone or with fixed AS1411): 75.9 nM
IC50 (K562 cells; [1]): 1.26 µM
IC50 (Daudi cells; [2]): 220 nM
IC50 (Daudi cells; [3]): 220 nM
IC50 (Daudi cells; [4]): 57.2 nM
IC50 (Raji cells; [2]): 746 nM
IC50 (Raji cells; [3]): 746 nM
IC50 (Raji cells; [4]): 327 nM
IC50 (HL-60 cells; [1]): 639 nM
IC50 (Jurkat cells; Homo sapiens, 144 h, n=1, IC50 as doxorubicin concentration, alone or with fixed AS1411): 426 nM
Compound: COc1cccc2c1C(=O)c1c(O)c3c(c(O)c1C2=O)C[C@@](O)(C(=O)CO)C[C@@H]3O[C@@H]1CC(N)[C@@H](O)C(C)O1 (stereo partly drawn) [Doxorubicin, (8S,10S)-10-(4-amino-5-hydroxy-6-methyl-tetrahydro-2H-pyran-2-yloxy)-6,8,11-trihydroxy-8-(2-hydroxyacetyl)-1-methoxy-7,8,9,10-tetrahydrotetracene-5,12-dione]
IC50 (Namalwa cells; Homo sapiens, 144 h, Namalwa, 6 days, SRB, IC50 as doxorubicin concentration, alone or with fixed AS1411, read-out: Mean IC50): 69.7 nM
IC50 (Namalwa cells; Homo sapiens, NAMALWA, doxorubicin alone, read-out: Doxorubicin IC50, Alone): 69.7 nM
IC50 (Namalwa cells; Homo sapiens, NAMALWA, in combination with 2.5 μM AS1411, read-out: Doxorubicin IC50, In combination with 2.5 μM AS1411): 17.2 nM
Fold increase in potency (Namalwa cells; NAMALWA, doxorubicin IC50 alone vs in combination with 2.5 μM AS1411): 4.1 fold
IC50 (KG-1 cells; [1]): 4.86 µM
Fold increase in potency (Daudi cells; [5]): 3.8 fold
Fold increase in potency (Raji cells; [5]): 2.3 fold

Compound: AS1411: G-rich oligonucleotide, SEQ ID No: 1, 5′-GGTGGTGGTGGTTGTGGTGGTGGTGG-3′
IC50 (Namalwa cells; Namalwa, 6 days, SRB, AS1411 without doxorubicin, read-out: Mean IC50): 3200 nM
IC50 (MV411 cells; AS1411 without doxorubicin): 2360 nM
IC50 (KG-1 cells; AS1411 without doxorubicin): 2.32 µM
IC50 (K562 cells; AS1411 without doxorubicin): 7.03 µM
IC50 (Daudi cells; [6]): 9350 nM
IC50 (Raji cells; [6]): 4940 nM
IC50 (HL-60 cells; AS1411 without doxorubicin): 2620 nM
IC50 (Jurkat cells; n=1, AS1411 without doxorubicin): 1130 nM
IC50 (MV4-11 (AML) cells): 2.1 nM
IC50 (SUP-B15 (ALL) cells): 2.3 nM
IC50 (R-1059-D (osteosarcoma)): 4.7 nM
IC50 (A204 (rhabdomyosarcoma)): 2.6 nM
IC50 (SK-N-AS (neuroblastoma)): 3.2 nM
Bax protein level (Western blot) (Bax protein): increased levels; also recorded: Up-regulation
total cell lysate nucleolin levels (Western blot) (nucleolin): no effect
